Results taken from article PMC8400542, “Anti-Inflammatory, Antipyretic, and Analgesic Properties of Potamogeton perfoliatus Extract: In Vitro and In Vivo Study” (Molecules, 2021).

What was measured:
[1] = Total antioxidant capacity (TAC) ELISA kit assay; details: mean ± SE
Protocol: The antioxidant potential of the extract was evaluated by determining its TAC using a TAC ELISA kit (MBS726896, my BioSource, Inc., San Diego, CA, USA) in accordance with the manufacturer’s instructions and compared to the standard antioxidant, ascorbic acid as previously described Sobeh et al..

[2] = tested on: acetic acid-induced writhing in mice; experiment: Acetic acid-induced abdominal writhing; details: 20 mg/kg, p.o.
Protocol: The peripheral analgesic activity of the extract was evaluated by the acetic acid-induced writhing model in mice according to Sobeh et al. [3]. […] The number of writhes, manifested as extension of hind legs, constriction of abdomen, or turning of trunk was evaluated within 25 min. The reduction in the number of writhes as compared to the control group is indicative of the analgesic potential of the extract [3]. The percent inhibition of writhing was calculated using the following formula as previously reported [18]. % Analgesic activity = (mean writhing count (control-treatment)/mean writhing count (control)).
The data results were quantified at one-hour intervals after administration of either the extract (200 and 400 mg/kg, p.o.) or nalbuphine (10 mg/kg, p.o.).

[3] = tested on: acetic acid-induced vascular permeability in mice; experiment: Acetic acid-induced vascular permeability (Evans blue); format: in vivo, mouse; details: 20 mg/kg, p.o., compared to control mice
Protocol: To study the effect of the extract on the vascular phase of inflammation, acetic acid-induced vascular permeability was performed as described previously by Sobeh et al.. […] One hour later, Evans blue (0.25% solution in normal saline, 0.2 mL) was injected in the tail vein. Acetic acid (0.6% in normal saline, 1 mL/100 g) was then injected after 30 min in the peritoneal cavity of the treated mice. The normal control was injected with normal saline only. Mice were euthanized 30 min later by cervical dislocation, the abdominal cavities were washed with 3 mL saline solution and the collected washings were then centrifuged at 3000 rpm for 10 min. The vascular permeability is proportional to the absorbance of Evans blue dye in the supernatant, which was measured at 610 nm using a plate reader (Biotek, Winooski, VT, USA).
Figure 3 (A) Results from P. perfoliatus extract on carrageenan-induced leukocyte migration into the peritoneal cavity in mice (total number × 10^6). […] (B) Results from P. perfoliatus extract on acetic acid-induced vascular permeability. Mice received different treatments 1 h before acetic acid (0.6%, i.p.) and Evans blue dye injections. The amount of dye extravasation into the abdominal cavity was quantified and used as an indicator of inflammation degree. […]

[4] = tested on: carrageenan-induced leukocyte migration in mice; experiment: Carrageenan-induced leukocyte migration into the peritoneal cavity; format: in vivo, mouse; details: 20 mg/kg, p.o.
Protocol: Three hours later, the mice were euthanized, and each peritoneal cavity was washed with 3 mL of phosphate-buffered saline (PBS) containing 1 mM EDTA. The total leukocyte count was determined in each peritoneal cavity wash using a hemocytometer and presented as number of cells/mL [3].
Figure 3 (A) Results from P. perfoliatus extract on carrageenan-induced leukocyte migration into the peritoneal cavity in mice (total number × 10^6). […] (B) Results from P. perfoliatus extract on acetic acid-induced vascular permeability. Mice received different treatments 1 h before acetic acid (0.6%, i.p.) and Evans blue dye injections. The amount of dye extravasation into the abdominal cavity was quantified and used as an indicator of inflammation degree. The results are shown as means ± SEM (n = 5–6). * p < 0.05 compared to saline group. ^# p < 0.05 compared to control (carrageenan or acetic acid only treated group).

5-lipoxygenase (LOX) = experiment: Lipoxygenase inhibition, enzyme immunoassay kit; format: biochemical; details: mean ± SE
Protocol: The in vitro enzymatic activities were determined, utilizing enzyme immunoassay kits (Cayman Chemical, Ann Arbor, MI, USA) following the manufacturer’s instructions and the study by Adellall et al..

[5] = tested on: Brewer's yeast-induced pyrexia in mice; experiment: Brewer's yeast-induced pyrexia; format: in vivo, mouse; details: 150 mg/kg
Protocol: Pyrexia in mice was induced as previously reported by Liu et al. with minor modifications. The animals’ initial rectum temperature was determined using a lubricated digital thermometer. Suspension of Brewer’s yeast was prepared in normal saline (30%) and injected subcutaneously behind the neck of the animal (1 mL/100 g). After 18 h, rectal temperatures of the mice were determined again (T0). […] Pyretic animals received P. perfoliatus extract (200, 400, and 600 mg/kg, orally), paracetamol (150 mg/kg), or vehicle. Rectal temperatures were measured at 30 min, 1, 2, 3 and 24 h following the different treatments.

[6] = tested on: carrageenan-induced leukocyte migration in mice; details: cited from earlier work
[7] = tested on: heat-induced nociceptive pain in mice; experiment: Hot plate test (central antinociception); details: 10 mg/kg
Protocol: To investigate the possible central analgesic activity of the studied extract, the hot plate test was performed according to Sobeh et al. [3]. […] One hour later, each individual mouse was placed on a hot plate preheated at 55 ± 1 °C and observed for any response to the heat-induced nociceptive pain (licking the fore and hind paws, hind paw lifting, or jumping). […] The overall antinociceptive activity of the extract was estimated by calculating the area under the curve (AUC) for the latency responses at the stated time points using GraphPad Prism.
(B) Hot plate response latency (s) assay. (C) AUC of response latency shown in panel (B).

[8] = tested on: carrageenan-induced paw edema in rats; details: 20 mg/kg, compared to the control group; cited from earlier work

O=C1O[C@H]([C@@H](O)CO)C(O)=C1O [Ascorbic acid]
TAC [1]: 28.27 ± 1.83 U/L

O=C(O)Cc1ccccc1Nc1c(Cl)cccc1Cl [Diclofenac]
reduction of the control writhes [2]: 67% | inhibition of vascular permeability [3]: 67% | decrease of the number of leukocytes [4]: 42% | LOX IC50 (5-lipoxygenase (LOX)): 2.83 ± 0.07 µg/mL

CC(=O)Nc1ccc(O)cc1 [Paracetamol]
Rectal Temperature Recorded Following Different Treatments ([5]; 0.5 h): 38.14 ± 0.19 °C | Rectal Temperature Recorded Following Different Treatments ([5]; 1 h): 37.50 ± 0.31 °C | Rectal Temperature Recorded Following Different Treatments ([5]; 2 h): 37.12 ± 0.29 °C | Rectal Temperature Recorded Following Different Treatments ([5]; 3 h): 36.96 ± 0.24 °C | Rectal Temperature ([5]; 18 h after yeast injection (T0, before treatment)): 38.60 ± 0.18 °C | Rectal Temperature Recorded Following Different Treatments ([5]; 24 h): 36.50 ± 0.22 °C

O=C(O)/C=C/c1ccc(O)c(O)c1 [caffeic acid]
effect on leukocyte migration [6]: inhibited leukocyte migration

O=C(/C=C/c1ccc(O)c(O)c1)O[C@@H]1C[C@](O)(C(=O)O)C[C@@H](O)[C@H]1O [chlorogenic acid]
effect on leukocyte migration [6]: inhibited leukocyte migration

Oc1ccc2c3c1O[C@H]1[C@@H](O)CC[C@@]4(O)[C@@H](C2)N(CC2CCC2)CC[C@]314 [nalbuphine]
increase in AUC of thermal response latency vs control [7]: 154.7%

O=C(O)c1ccc(O)cc1 [p-Hydroxybenzoic acid]
effect on edema thickness [8]: significantly decreased the edema thickness
